{
  "source": "patent US20080226719A1",
  "about": "“Combination of Rosiglitazone and Donepezil for Improvement of Cognitive Function” (priority 2005, published 2008)",
  "origin": "cited, not measured here",
  "tested_on": "patients with AD",
  "conditions": "cited from earlier work",
  "data": [
    {"smiles": "Nc1c2c(nc3ccccc13)CCCC2", "note": "[tacrine]", "values": [
      {"measurement": "patients unchanged or worse", "setting": "APOE4 carriers with AD, after 30 weeks", "result": 60, "unit": "%"},
      {"measurement": "patients showing an improvement in cognitive function", "setting": "non-APOE4 carriers with AD", "result": 83, "unit": "%"}
    ]}
  ]
}
